Measurements published in US20090030073A1, “PLANT-DERIVED THERAPEUTIC AGENT FOR MALIGNANT” (priority 2006, published 2009).

System: neuroblastoma cell strains IMR-32, SK—N—SH, and NB-39
Assay: MTT assay, anti-malignant-tumor effect on neuroblastoma cell strains
Type: cell-based
Details: 48 hours incubation
Description: The anti-malignant-tumor effect of compounds (1), (2a), (2b), and (2c) on neuroblastoma cell strains IMR-32, SK—N—SH, and NB-39 was investigated using the MTT assay.
Specifically, each type of cells was seeded onto a 96-well plate so that the cell density was adjusted to 1×10^4 cells/well, and each drug compound was added to the wells 24 hours after seeding, followed by incubation under 5%-CO2 at 37° C. for 48 hours. Subsequently, an MTT solution was added to the wells, and blue formazan formed three hours after addition was well-mixed through pipetting. The absorbance of each well was measured at 570 nm (top) and 655 nm (bottom), and the survival cell rate with respect to the control group was calculated. In this assay, formation of blue formazan caused by activity of mitochondria is observed only when cells survive.

SMILES	cytotoxicity to neuroblastoma cells (survival cell rate, FIGS. 2 to 13)
C=CCOc1c(OC)cc2c(c1OC)O[C@H](c1ccc3c(c1)OCO3)[C@H]2C [compound (1)]	intense cytotoxicity
C=CC[C@]12CC=CC(=O)[C@@]1(O)O[C@H](c1ccc(OC)c(OC)c1)[C@H]2C [compound (2a)]	intense cytotoxicity
C=CC[C@]12CC=CC(=O)[C@@]1(O)OC(c1ccc3c(c1)OCO3)[C@H]2C (stereo partly shown) [compound (2b), ferrearin C]	intense cytotoxicity
C=CC[C@]12CC=CC(=O)[C@@]1(O)O[C@H](c1cc(OC)c3c(c1)OCO3)[C@H]2C [compound (2c), ferrearin G]	intense cytotoxicity
